From ChEMBL document CHEMBL1140242, “Metabolism investigation leading to novel drug design: orally active prostacyclin mimetics. Part 4” (Bioorg Med Chem Lett, 2005)
Blank lines part the entries; values can stand above or below the compound they belong to.

What was measured:
[1] = Inhibition of ADP-induced aggregation of monkey platelets; type: functional; conditions: Cercopithecidae
[2] = Bioavailability of the drug after […] administration at a dose of 0.32 (mg/kg) in rat; type: ADME, organism-based; conditions: in vivo, iv, read-out: Ba
[3] = Maximum (Peak) plasma drug concentration after single-dose administration at a dose of 0.32 (mg/kg) in rat; type: ADME, organism-based; design: dose 0.32 mg/kg
[4] = Elimination half-life after peroral administration at a dose of 0.32 (mg/kg) in rat; type: ADME, organism-based; conditions: in vivo, po
Rattus norvegicus [5] = assay: Effective dose for in vivo activity in D-GalN/LPS-induced rat hepatic injury model; type: functional
Homo sapiens = species: Homo sapiens; assay: Inhibition of ADP-induced aggregation of human platelets; type: functional, organism-based
[6] = Bioavailability of the drug after […] administration at a dose of 1 (mg/kg) in rat; type: ADME, organism-based; conditions: in vivo, iv, read-out: Ba
[7] = molecular target: Prostaglandin E2 receptor EP4 subtype (Homo sapiens, UniProt P35408); assay: Inhibition of [3H]PGE-2 binding to Prostanoid EP4 receptor
Sequence of Prostaglandin E2 receptor EP4 subtype (P35408 whole entry): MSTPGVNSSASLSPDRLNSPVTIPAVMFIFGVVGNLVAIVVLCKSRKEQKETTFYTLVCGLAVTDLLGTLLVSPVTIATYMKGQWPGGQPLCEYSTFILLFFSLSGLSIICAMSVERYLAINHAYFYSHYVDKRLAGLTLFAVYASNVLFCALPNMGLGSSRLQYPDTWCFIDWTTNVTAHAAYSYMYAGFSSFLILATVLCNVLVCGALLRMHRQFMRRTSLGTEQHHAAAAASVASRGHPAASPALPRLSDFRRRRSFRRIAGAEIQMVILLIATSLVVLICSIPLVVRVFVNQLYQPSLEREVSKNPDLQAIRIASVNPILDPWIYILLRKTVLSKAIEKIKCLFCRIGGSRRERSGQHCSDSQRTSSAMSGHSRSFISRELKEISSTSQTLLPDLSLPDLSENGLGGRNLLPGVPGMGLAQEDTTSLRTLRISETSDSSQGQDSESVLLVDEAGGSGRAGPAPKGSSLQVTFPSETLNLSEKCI

Prostacyclin receptor = Prostacyclin receptor (Homo sapiens, UniProt P43119); assay: Inhibition of [3H]-Iloprost binding to human Prostanoid IP receptor
Sequence of Prostacyclin receptor (P43119 whole entry): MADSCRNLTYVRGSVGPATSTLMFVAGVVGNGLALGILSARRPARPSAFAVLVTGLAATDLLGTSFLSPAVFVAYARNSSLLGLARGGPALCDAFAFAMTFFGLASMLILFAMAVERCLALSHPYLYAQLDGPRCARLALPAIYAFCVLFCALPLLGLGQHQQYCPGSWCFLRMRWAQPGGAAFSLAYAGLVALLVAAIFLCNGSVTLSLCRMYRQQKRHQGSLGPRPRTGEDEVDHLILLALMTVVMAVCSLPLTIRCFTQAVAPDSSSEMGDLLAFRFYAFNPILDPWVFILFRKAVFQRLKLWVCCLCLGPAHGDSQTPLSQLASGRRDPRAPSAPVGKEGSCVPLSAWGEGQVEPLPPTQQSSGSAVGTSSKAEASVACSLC

Canis familiaris = species: Canis familiaris; assay: Inhibition of ADP-induced aggregation of dog platelets; type: functional; conditions: Canis lupus familiaris
[8] = molecular target: Prostaglandin E2 receptor EP2 subtype (Homo sapiens, UniProt P43116); assay: Inhibition of [3H]PGE-2 binding to Prostanoid EP2 receptor
Sequence of Prostaglandin E2 receptor EP2 subtype (P43116 whole entry): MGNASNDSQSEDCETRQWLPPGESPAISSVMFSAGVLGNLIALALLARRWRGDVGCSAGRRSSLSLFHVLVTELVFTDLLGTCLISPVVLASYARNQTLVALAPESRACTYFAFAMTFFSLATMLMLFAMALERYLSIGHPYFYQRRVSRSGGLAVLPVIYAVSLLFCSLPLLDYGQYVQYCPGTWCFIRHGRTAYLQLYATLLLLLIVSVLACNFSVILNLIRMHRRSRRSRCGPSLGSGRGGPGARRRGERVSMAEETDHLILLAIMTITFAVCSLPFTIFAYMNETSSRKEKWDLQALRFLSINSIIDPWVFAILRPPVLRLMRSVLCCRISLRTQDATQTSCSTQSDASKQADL

Rattus norvegicus [9] = species: Rattus norvegicus; assay: Inhibition of ADP-induced aggregation of rat platelets; type: functional, organism-based
[10] = Total body clearance of drug from the plasma after i.v. administration at a dose of 1 (mg/kg) in rat; type: ADME, organism-based; conditions: iv, read-out: CLtot
[11] = Maximum (Peak) plasma drug concentration after single-dose administration at a dose of 1 (mg/kg) in rat; type: ADME, organism-based; design: dose 1 mg/kg
Thromboxane A2 receptor = molecular target: T1, Thromboxane A2 receptor (Homo sapiens, UniProt P21731); assay: Inhibition of [3H]SQ-29,548 binding to human Prostanoid TP receptor
T1 sequence (P21731 whole entry): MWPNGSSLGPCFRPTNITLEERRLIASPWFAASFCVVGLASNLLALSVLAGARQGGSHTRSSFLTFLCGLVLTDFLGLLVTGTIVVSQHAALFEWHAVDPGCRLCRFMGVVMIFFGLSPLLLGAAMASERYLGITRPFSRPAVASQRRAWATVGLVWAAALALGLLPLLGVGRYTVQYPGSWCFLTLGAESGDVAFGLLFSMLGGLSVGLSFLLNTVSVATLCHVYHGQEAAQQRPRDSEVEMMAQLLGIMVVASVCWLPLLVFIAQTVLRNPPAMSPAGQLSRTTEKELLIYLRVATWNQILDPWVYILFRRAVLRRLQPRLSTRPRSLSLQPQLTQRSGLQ

[12] = molecular target: T2, Prostaglandin E2 receptor EP3 subtype (Homo sapiens, UniProt P43115); assay: Inhibition of [3H]-PGE-2 binding to Prostanoid EP3 receptor
T2 sequence (P43115 whole entry): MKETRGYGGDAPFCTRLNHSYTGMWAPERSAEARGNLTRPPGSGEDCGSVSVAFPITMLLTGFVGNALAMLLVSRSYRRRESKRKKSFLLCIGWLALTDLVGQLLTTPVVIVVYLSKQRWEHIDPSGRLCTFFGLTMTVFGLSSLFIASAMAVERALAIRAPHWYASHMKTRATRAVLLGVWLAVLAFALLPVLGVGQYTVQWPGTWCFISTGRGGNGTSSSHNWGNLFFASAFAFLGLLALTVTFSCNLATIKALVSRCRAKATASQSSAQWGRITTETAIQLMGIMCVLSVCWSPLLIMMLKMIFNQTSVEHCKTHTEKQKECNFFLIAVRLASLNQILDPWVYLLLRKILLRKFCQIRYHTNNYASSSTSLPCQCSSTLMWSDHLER

[13] = molecular target: Prostaglandin F2-alpha receptor (Homo sapiens, UniProt P43088); assay: Inhibition of [3H]-PGF-2 binding to human Prostanoid FP receptor
Sequence of Prostaglandin F2-alpha receptor (P43088 whole entry): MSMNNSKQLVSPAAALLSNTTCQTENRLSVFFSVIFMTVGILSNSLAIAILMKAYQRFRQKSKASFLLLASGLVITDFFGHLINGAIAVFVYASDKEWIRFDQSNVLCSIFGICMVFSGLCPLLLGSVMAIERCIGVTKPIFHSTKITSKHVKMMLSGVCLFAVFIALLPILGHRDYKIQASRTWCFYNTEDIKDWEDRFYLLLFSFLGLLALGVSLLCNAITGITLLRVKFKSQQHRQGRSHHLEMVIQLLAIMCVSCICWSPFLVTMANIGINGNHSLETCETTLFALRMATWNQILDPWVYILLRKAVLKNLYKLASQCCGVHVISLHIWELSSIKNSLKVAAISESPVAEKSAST

[14] = molecular target: T3, Prostaglandin E2 receptor EP1 subtype (Homo sapiens, UniProt P34995); assay: Inhibition of [3H]PGE-2 binding to Prostanoid EP1 receptor
T3 sequence (P34995 whole entry): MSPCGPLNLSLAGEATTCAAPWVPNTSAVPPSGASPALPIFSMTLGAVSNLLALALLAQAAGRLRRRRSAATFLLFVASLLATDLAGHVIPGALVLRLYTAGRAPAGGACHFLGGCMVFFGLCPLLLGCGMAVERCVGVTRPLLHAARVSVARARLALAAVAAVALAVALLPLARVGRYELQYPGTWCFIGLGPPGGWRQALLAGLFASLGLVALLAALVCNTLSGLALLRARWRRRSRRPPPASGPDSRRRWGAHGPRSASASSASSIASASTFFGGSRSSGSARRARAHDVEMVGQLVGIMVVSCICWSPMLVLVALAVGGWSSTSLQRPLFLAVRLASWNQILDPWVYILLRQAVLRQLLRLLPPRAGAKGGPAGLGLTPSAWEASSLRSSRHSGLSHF

[15] = molecular target: T4, Prostaglandin D2 receptor (Homo sapiens, UniProt Q13258); assay: Inhibition of [3H]PGD-2 binding to human Prostanoid DP receptor
T4 sequence (Q13258 whole entry): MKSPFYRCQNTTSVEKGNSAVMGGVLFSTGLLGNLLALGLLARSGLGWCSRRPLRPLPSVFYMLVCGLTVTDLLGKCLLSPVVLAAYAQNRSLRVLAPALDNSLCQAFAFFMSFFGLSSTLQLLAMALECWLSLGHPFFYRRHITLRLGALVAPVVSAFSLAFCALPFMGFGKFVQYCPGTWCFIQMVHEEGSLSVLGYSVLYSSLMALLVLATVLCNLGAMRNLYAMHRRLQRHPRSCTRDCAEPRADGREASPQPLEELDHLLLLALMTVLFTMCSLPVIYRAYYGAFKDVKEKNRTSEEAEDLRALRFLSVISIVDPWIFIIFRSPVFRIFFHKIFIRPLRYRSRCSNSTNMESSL

[16] = Area Under Plasma concentration-time curve after peroral administration at a dose of 1 (mg/kg) in rat; type: ADME, organism-based; conditions: po
[17] = Area Under Plasma concentration-time curve after peroral administration at a dose of 0.32 (mg/kg) in rat; type: ADME, organism-based; conditions: po
[18] = Total body clearance of drug from the plasma after i.v. administration at a dose of 0.32 (mg/kg) in rat; type: ADME, organism-based; conditions: iv, read-out: CLtot

IC50 [1]: 188 nM
bioavailability [2]: 50%
Cmax [3]: 16.4 ng/mL
half-life [4]: 6.6 h
SMILES: O=C([O-])COc1cccc(C[C@@H]2CCCC=C2c2nc(-c3ccccc3)c(-c3ccccc3)o2)c1.[Na+]
ED50 (Rattus norvegicus [5]): 0.032 mg/kg

IC50 (Homo sapiens): 12 nM
SMILES: O=C(O)COc1cccc(C[C@@H]2CCC[C@H]3O[C@@]23c2nc(-c3ccccc3)c(-c3ccccc3)o2)c1

bioavailability [6]: 20%
Ki [7]: 7200 nM
Ki (Prostacyclin receptor): 6.1 nM
IC50 (Canis familiaris): 1470 nM
IC50 [1]: 12 nM
Ki [8]: 1400 nM
IC50 (Rattus norvegicus [9]): 300 nM
clearance [10]: 18.6 mL/min/kg
Cmax [11]: 67.9 ng/mL
IC50 (Homo sapiens): 5.8 nM
Ki (Thromboxane A2 receptor): 930 nM
Ki [12]: 3200 nM
Ki [13]: > 10000 nM
Ki [14]: > 10000 nM
half-life [4]: 26.9 h
Ki [15]: 2900 nM
AUC [16]: 168 ng·h/mL
SMILES: O=C([O-])COc1cccc(C[C@@H]2CCC[C@@H]3O[C@]23c2nc(-c3ccccc3)c(-c3ccccc3)o2)c1.[Na+]

IC50 (Homo sapiens): 14 nM
SMILES: O=C(O)COc1cccc(C[C@@H]2CCCC3OC32c2nc(-c3ccccc3)c(-c3ccccc3)o2)c1 (stereo not given in full)

AUC [17]: 42.5 ng·h/mL
Ki (Prostacyclin receptor): 41 nM
IC50 (Rattus norvegicus [9]): 2800 nM
bioavailability [2]: 78%
IC50 (Homo sapiens): 56 nM
Cmax [3]: 45.2 ng/mL
clearance [18]: 9.19 mL/min/kg
half-life [4]: 17 h
SMILES: O=C([O-])COc1cccc(C[C@@H]2CCC=C2c2nc(-c3ccccc3)c(-c3ccccc3)o2)c1.[Na+]
ED50 (Rattus norvegicus [5]): 1 mg/kg

IC50 (Homo sapiens): 98 nM
SMILES: O=C(O)COc1cccc(C[C@@H]2CCC=CC2(O)c2nc(-c3ccccc3)c(-c3ccccc3)o2)c1 (stereo not given in full)

IC50 (Homo sapiens): 116 nM
SMILES: O=C(O)COc1cccc(C[C@@H]2CCCC(O)=C2c2nc(-c3ccccc3)c(-c3ccccc3)o2)c1
